For 1 substance, hygroscopic nature and stability in storage results are on record in US20090156648A1, “Preparations containing pyridoxine and alpha-hydroxyisocaproic acid (HICA)” (IOVATE T. & P. INC., priority 2007, published 2009).

The data set can be described thus: hygroscopicity and storage stability of the salt as described. It counts as physicochemical. The conditions noted are these: crystalline powder.

Regarding pyridoxine α-hydroxyisocaproate, the hygroscopic nature entry is on record as “non-hygroscopic” and the stability in storage result is reported as “stable in storage”.
